Measured values: PubChem BioAssay (NCI)
Several values for one entry are separate records, joined by “and”; a condition that tells them apart may be missing. Identical values can stand only once.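 Method: 48-hour compound exposure of cells in 96-well plates, five concentrations, linear interpolation of endpoints. GI50 marks 50% less growth. TGI: concentration producing complete growth inhibition.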

Key:
Test in all cases: growth of human tumour cells (NCI), 48 h
786-0 renal = system: 786-0 renal
SF-539 CNS = system: SF-539 CNS
NCI-H522 lung = system: NCI-H522 lung
CCRF-CEM leukemia = system: CCRF-CEM leukemia
M14 melanoma = system: M14 melanoma
NCI-H460 lung = system: NCI-H460 lung
SK-OV-3 ovarian = system: SK-OV-3 ovarian
T-47D breast = system: T-47D breast
SW-620 colon = system: SW-620 colon
HOP-92 NSCLC = system: HOP-92 NSCLC

| SMILES | TGI (786-0 renal) | TGI (SF-539 CNS) | TGI (NCI-H522 lung) | TGI (CCRF-CEM leukemia) | TGI (M14 melanoma) | TGI (NCI-H460 lung) | TGI (SK-OV-3 ovarian) | TGI (T-47D breast) | TGI (SW-620 colon) | GI50 (NCI-H522 lung) | GI50 (CCRF-CEM leukemia) | TGI (HOP-92 NSCLC) | GI50 (HOP-92 NSCLC) | GI50 (NCI-H460 lung) | GI50 (SK-OV-3 ovarian) | GI50 (SW-620 colon) | GI50 (SF-539 CNS) | GI50 (T-47D breast) | GI50 (M14 melanoma) |
| --- | --- | --- | --- | --- | --- | --- | --- | --- | --- | --- | --- | --- | --- | --- | --- | --- | --- | --- | --- |
| COC(=O)C1=CSC2(S1)C(C(=O)OC)=CSc1c2ssc1=Nc1ccccc1 (configuration not stated) | 3.87 µM | 2.96 µM | 3.4 µM | 7.96 µM | 5.13 µM | > 100 µM | 9.9 µM | > 100 µM | 8.76 µM |  |  |  |  |  |  |  |  |  |  |
| CC(=O)C(O)N1C(=O)C=CC1=O (configuration not stated) |  |  |  |  |  | 25 µM and 34.8 µM and 33.1 µM |  | > 25 µM |  | > 25 µM and 13.5 µM | > 25 µM and 2.74 µM |  |  |  |  |  |  |  |  |
| CCCCCCNC(=O)c1cnc(Cl)cn1 | > 100 µM | 35.4 µM | 0.552 µM | > 100 µM | 26 µM | 37.3 µM | 66 µM | > 100 µM | 28.4 µM |  |  | > 100 µM |  |  |  |  |  |  |  |
| COc1ccc(N2C(=O)C3c4[nH]c5c(C)cccc5c4C4CCC(C(C)(C)C)CC4C3C2=O)cc1 (configuration not stated) |  | > 10 µM | > 10 µM | > 10 µM | > 10 µM | 6.63 µM | > 10 µM | > 10 µM | > 10 µM |  |  |  |  |  |  |  |  |  |  |
| NC(=O)CCCC(NCc1c2ccccc2nc2ccccc12)C(=O)O (configuration not stated) | > 100 µM | > 100 µM | 67.7 µM | 71.6 µM | > 100 µM | > 100 µM | > 100 µM |  | > 100 µM |  |  | 85.7 µM |  |  |  |  |  |  |  |
| COc1ccc([C@@H]2ON(C)[C@H]3CN(C)C(=O)[C@@H]23)cc1 |  |  | > 100 µM | > 100 µM | > 100 µM | > 100 µM | > 100 µM | > 100 µM | > 100 µM |  |  | > 100 µM |  |  |  |  |  |  |  |
| CN1CCCCC1CCN1CCCCC1 (configuration not stated) | > 100 µM |  | > 100 µM |  | > 100 µM | > 100 µM | > 100 µM | > 100 µM | > 100 µM |  |  | > 100 µM |  |  |  |  |  |  |  |
| Cc1ccccc1N=Nc1ccc(N=Nc2c(O)ccc3ccccc23)c(C)c1 | > 100 µM |  | > 100 µM |  | > 100 µM |  | > 100 µM | > 100 µM | > 100 µM |  |  | > 100 µM |  |  |  |  |  |  |  |
| CCCCCCCSc1nc2c(C(=O)OCC)ncn2c2ccccc12 |  |  |  | > 100 µM | > 100 µM | > 100 µM | > 100 µM |  | > 100 µM |  |  | > 100 µM |  |  |  |  |  |  |  |
| CC1C(O)C2(Oc3cc4c(c5c3[C@@H](CC5O)[C@H]2C)CCC2Cc3nc5c(nc3C[C@@]42C)CC2CCC3C4=C[C@H]6O[C@@]7(O[C@@](C)(CO)C[C@@H]7O)C(C)[C@@]6(O)[C@]4(C)[C@@H](O)CC3[C@]2(C)C5)OC1(C)C (some centres not stated) |  | 0.302 µM | 0.42 µM | 0.194 µM |  | 0.386 µM | 0.502 µM |  | 1.05 µM |  |  | > 3.67 µM |  |  |  |  |  |  |  |
| Cc1cc(NCc2cc(Nc3ccnc4cc(Cl)ccc34)ccc2F)nc(N2CCCC2)n1 |  |  |  | > 100 µM |  | 2.96 µM | 5.09 µM |  | 2.95 µM |  | 0.353 µM | 2.61 µM | 0.763 µM | 1.35 µM | 2.04 µM | 1.23 µM |  |  |  |
| O=C1c2c(c3c4ccccc4[nH]c3c3ccc4ccccc4c23)C(=O)N1CCN1CCCCC1 |  | 3.21 µM | 5.36 µM | 11.3 µM |  | 1.45 µM | > 100 µM | 7.87 µM | 4.75 µM | 1.5 µM | 0.272 µM | 38.8 µM | 2.67 µM | 0.25 µM | 0.801 µM | 0.663 µM | 1.41 µM | 1.61 µM |  |
| Cc1ccc(S(=O)(=O)NCCSCCNS(=O)(=O)c2ccc(C)cc2)cc1 |  |  | > 100 µM | > 100 µM | > 100 µM | > 100 µM | > 100 µM | > 100 µM | > 100 µM |  |  | > 100 µM |  |  |  |  |  |  |  |
| NC(=O)NN=C(CS)CS |  | 40.7 µM | 55.2 µM | > 100 µM |  | 59 µM | > 100 µM |  | 60 µM |  |  | 38.6 µM |  |  |  |  |  |  |  |
| Cc1sc(Cc2ccccc2)nc1-c1ccc(N)cc1 |  |  | 38.7 µM | 72.8 µM | 43.7 µM | 50.2 µM |  |  | > 100 µM |  |  | 43.4 µM |  |  |  |  |  |  |  |
| Cc1c2cc[n+](CCN3CCCCC3)cc2c(C)c2c1[nH]c1ccc(O)cc12 | 21.6 µM | 34.5 µM and > 58.8 µM | 53.5 µM and 16.2 µM | 17.4 µM and > 100 µM | 50.4 µM | 10 µM and > 32.8 µM | 33.9 µM and 31.2 µM | 12.1 µM | 55.4 µM and > 71 µM |  | 1.8 µM | 46.6 µM and 42 µM | 4.34 µM | 0.523 µM | 4.42 µM | 6.26 µM | 7.38 µM |  |  |
| CN(C)c1ccc(/C=N\NC(=O)CSCC(=O)N/N=C/c2ccc(N(C)C)cc2)cc1 | > 100 µM | > 100 µM | > 100 µM | > 100 µM | > 100 µM | > 100 µM | > 100 µM | 88.6 µM | > 100 µM |  |  | > 100 µM |  |  |  |  |  |  |  |
| O=c1ccc2cc(O)c(O)cc2o1 | > 100 µM | > 100 µM | > 100 µM | > 100 µM | > 100 µM | > 100 µM | > 100 µM | > 100 µM | > 100 µM |  |  | > 100 µM |  |  |  |  |  |  |  |
| CN(C)CCNc1nc(-c2ccc3ccccc3c2)nc2nc[nH]c12 | 32.1 µM |  | 6.22 µM | 52.9 µM | 23.6 µM | 15.6 µM | 20.8 µM | 29.7 µM | 24.6 µM |  |  |  |  |  |  |  |  |  |  |
| C[C@@H]1CC[C@H]2C(COCCOCC3=C(C(F)(F)F)O[C@@H]4O[C@@]5(C)CC[C@H]6[C@H](C)CC[C@@H]3[C@@]46OO5)=C(C(F)(F)F)O[C@@H]3O[C@@]4(C)CC[C@@H]1[C@]32OO4 | > 100 µM | > 69.8 µM | > 100 µM | > 100 µM | > 100 µM | > 100 µM | > 100 µM | > 94.6 µM | > 100 µM | 2.9 µM | < 0.0209 µM | > 100 µM | 0.0679 µM | < 0.0202 µM | > 31.5 µM | 0.0293 µM | 0.0264 µM | < 0.014 µM | 0.557 µM |
| NC(N)=N/N=C/c1c(-c2ccccc2)nc2n1ccc1nc(-c3ccccc3)c(/C=N/N=C(N)N)n12 | > 100 µM | > 100 µM | > 100 µM | > 100 µM | > 100 µM | > 100 µM | > 100 µM | > 100 µM | > 100 µM |  |  | > 100 µM |  |  |  |  |  |  |  |
| CC1=NN(c2ccccc2)C(=O)/C1=C/c1ccc(O)cc1 | > 100 µM | > 100 µM |  | > 100 µM | > 100 µM | > 100 µM | > 100 µM | > 100 µM | > 100 µM |  |  | > 100 µM |  |  |  |  |  |  |  |
| CC1=C2C(=O)c3ccccc3C(=O)[C@H]2[C@H]2CCO[C@H]2O1 | 37.8 µM | 43.9 µM | 32 µM | 69.8 µM | 40.2 µM | 45.1 µM | > 100 µM | > 100 µM | 53.1 µM |  |  | 42.3 µM |  |  |  |  |  |  |  |
| C/C=C/[P+](c1ccccc1)(c1ccccc1)c1ccccc1 | 37.6 µM | 16.7 µM | 10.2 µM | > 42.4 µM | 27.2 µM | 28.3 µM | 10.5 µM | 1.43 µM | 24.3 µM |  |  | 6.81 µM |  |  |  |  |  |  |  |
| Cc1ccc(Oc2ccc(C)cc2[N+](=O)[O-])cc1 |  | > 100 µM |  | > 100 µM | > 100 µM | > 100 µM | > 100 µM |  | > 100 µM |  |  | > 100 µM |  |  |  |  |  |  |  |
